Experimental data as given in patent publication EP0536419B1, “TRICYCLIC TRIAZOLE DERIVATIVES, PRODUCTION AND USE THEREOF” (TORAY INDUSTRIES, INC., priority 1991, dated 1992).
Counter-ions that a name gives are not always drawn.

Columns and labels:
[1] = biological target: rabbit platelets (Oryctolagus cuniculus, UniProt G1TEI7); experiment: in vitro platelet agglutination inhibition test (PAF-induced); assay type: cell-based; details: rabbit platelet-rich plasma, PAF final concentration 10 ng/ml, 37°C; read-out: PAF-Induced Platelet Aggregation IC50 (converted)
Experimental: To determine the PAF-antagonizing property of the compounds, the PAF-induced agglutination of rabbit platelets in vitro is utilized. To obtain platelet-rich plasma (PRP), venous blood is taken from rabbit auricular vein into a plastic centrifugal tube containing 1.0% sodium citrate solution. The ratio of sodium citrate solution to blood is 1:10. The obtained citrate-containing blood is centrifuged at 70 x g (625 rpm) at room temperature for 20 minutes and the PRP in the upper layer is transferred to another plastic tube. The remaining lower layer is further centrifuged at 1500 x g (2800 rpm) for 10 minutes and the platelet poor plasma (PPP) in the upper layer is recovered. The platelet agglutination is measured by using aggregometer commercially available from Niko Bioscience, Inc. An aliquote of the PRP is poured into a cubette for measurement. Immediately thereafter, aspirin, creatinin phosphate and creatinin phosphokinase are added to final concentrations of 0.1 mM, 7 mM and 45 U/ml, respectively. Then a solution of a test compound is added and the resulting mixture is stirred at 37°C for 2 minutes. To the resultant, PAF (final concentration: 10 ng/ml) is added to induce platelet aggregation. The platelet aggregation rate is calculated from the relative maximum value in each aggregation curve taking the transmittance of PPP as the maximum aggregation (100% aggregation). Using the aggregation rate when physiological saline was added as a control, the inhibition rate which was the ratio of the aggregation rate when the test compound was added to the control was calculated and the IC50 values were determined by interpolation.

[2] = biological target: T1, PAF receptor (Oryctolagus cuniculus, UniProt G1TEI7); experiment: Binding test using [3H]-PAF (PAF receptor binding test); parameters: species or system rabbit; details: rabbit platelet membrane fraction, [3H]-PAF 0.4 nM, 25°C, 60 minutes; read-out: Receptor Binding Inhibition IC50 (converted)
T1 construct: Cell membrane fraction of rabbit platelets was prepared; from tissue; host or cells: rabbit platelets (cell membrane fraction)
T1 sequence (G1TEI7 1-342): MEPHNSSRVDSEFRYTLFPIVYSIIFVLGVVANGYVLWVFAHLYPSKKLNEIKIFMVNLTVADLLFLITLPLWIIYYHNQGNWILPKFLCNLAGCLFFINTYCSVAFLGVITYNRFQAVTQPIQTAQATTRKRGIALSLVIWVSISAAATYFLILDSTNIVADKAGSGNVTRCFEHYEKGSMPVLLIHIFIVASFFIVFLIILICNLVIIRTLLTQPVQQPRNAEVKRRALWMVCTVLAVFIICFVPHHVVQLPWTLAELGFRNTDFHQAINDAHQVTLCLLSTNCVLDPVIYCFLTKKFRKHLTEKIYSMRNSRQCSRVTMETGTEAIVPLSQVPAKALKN
Experimental: Binding Test Using [^3H]-PAF (PAF receptor binding test)
Cell membrane fraction of rabbit platelets was prepared in accordance with the method by Hwang et al (Biochemistry; 22; 4756, (1983)). In 10 mM Tris buffer containing 0.25% bovine serum albumin, 50 mg of this membrane fraction was suspended and tritium-labelled PAF [^3H]-PAF; 0.4 nM) and a test compound were added thereto. After incubating the resulting mixture at 25°C for 60 minutes, the mixture was subjected to filtration through a filter paper made of glass fibers. The filter paper was washed with cold Tris buffer three times and then transferred to a vial. A scintillator was added thereto and the dose of radioactivity was measured with a liquid scintillation counter. The inhibition rate (binding ability) of the test compound was calculated according to the following equation and IC50 values were determined by interpolation. Inhibition Rate (%) = {1 - [((A - B))/((C - B))]} x 100 [formula] (wherein A represents amount bound in the presence of the compound, B represents amount bound by non-specific binding which is the dose of [^3H]-PAF bound radioactivity in the presence of 1 µM of PAF, and C represents total amount bound which is the dose of [^3H]-PAF bound radioactivity.
As a control agent, WEB2086 (Japanese Laid-open Patent Application (Kokai) No. 65-176591) disclosed as a PAF-antagonist was used.

Chain of rabbit platelets (G1TEI7 1-342): as above

Row | SMILES | IC50 [1] | IC50 [2]
1 | COc1ccc(C(O)(c2ccc(OC)c(OC)c2)C2CCN(CCCN3Cc4nnc(C)n4-c4ccccc43)CC2)cc1OC [Compound 138, 4,5-dihydro-1-methyl-5-[3-[4-[hydroxybis(3,4-dimethoxyphenyl)methyl]piperidin-1-yl]propyl] [1,2,4]triazolo[4,3-a]quinoxaline] | 1320 nM | 1170 nM
2 | COc1ccc(C(=C2CCN(CCCN3Cc4nnc(C)n4-c4ccccc43)CC2)c2ccccc2)cc1OC [Compound 142, 4,5-dihydro-1-methyl-5-[3-[4-[(3,4-dimethoxyphenyl)phenylmethylene]piperidin-1-yl]propyl] [1,2,4]triazolo[4,3,a]quinoxaline] | 952 nM | 162 nM
3 | COc1cccc(C(=C2CCN(CCCN3Cc4nnc(C)n4-c4ccccc43)CC2)c2cccc(OC)c2)c1 [Compound 143, 4,5-dihydro-1-methyl-5-[3-[4-[bis(3-methoxyphenyl)methylene]piperidin-1-yl]propyl] [1,2,4]triazolo[4,3,a]quinoxaline] | 411 nM | 74.7 nM
4 | COc1ccccc1C(=C1CCN(CCCN2Cc3nnc(C)n3-c3ccccc32)CC1)c1ccccc1OC [Compound 145, 4,5-dihydro-1-methyl-5-[3-[4-[bis(2-methoxyphenyl)methylene]piperidin-1-yl]propyl] [1,2,4]triazolo[4,3,a]quinoxaline] | 1700 nM | 411 nM
5 | Cc1cccc(C(=C2CCN(CCCN3Cc4nnc(C)n4-c4ccccc43)CC2)c2cccc(C)c2)c1 [Compound 147, 4,5-dihydro-1-methyl-5-[3-[4-[bis(3-tolyl)methylene]piperidin-1-yl]propyl] [1,2,4]triazolo[4,3,a]quinoxaline] | 173 nM | 67.5 nM
6 | COc1ccc(C(=C2CCN(CCCN3Cc4nnc(C)n4-c4ccccc43)CC2)c2ccc(OC)cc2)cc1 [Compound 148, 4,5-dihydro-1-methyl-5-[3-[4-[bis(4-methoxyphenyl)methylene]piperidin-1-yl]propyl] [1,2,4]triazolo[4,3,a]quinoxaline] | 597 nM | 54.1 nM
7 | Cc1nnc2n1-c1ccccc1N(CCCN1CCC(=C(c3ccccc3)c3ccc(Cl)cc3)CC1)C2 [Compound 149, 4,5-dihydro-1-methyl-5-[3-[4-[(4-chlorophenyl)phenylmethylene]piperidin-1-yl]propyl] [1,2,4]triazolo[4,3,a]quinoxaline] | 1080 nM | 206 nM
8 | Cc1nnc2n1-c1ccccc1N(CCCN1CCC(=C(c3ccc(Cl)cc3)c3ccc(Cl)cc3)CC1)C2 [Compound 150, 4,5-dihydro-1-methyl-5-[3-[4-[bis(4-chlorophenyl)methylene]piperidin-1-yl]propyl] [1,2,4]triazolo[4,3,a]quinoxaline] | 937 nM | 152 nM
9 | Cc1nnc2n1-c1ccccc1N(CCCN1CCC(=C(c3cccc(Cl)c3)c3cccc(Cl)c3)CC1)C2 [Compound 155, 4,5-dihydro-1-methyl-5-[3-[4-[bis(3-chlorophenyl)methylene]piperidin-1-yl]propyl] [1,2,4]triazolo[4,3,a]quinoxaline] | 2200 nM | 132 nM
10 | Cc1nnc2n1-c1ccccc1N(CCCN1CCC(=C(c3ccccc3)c3ccc(N(C)C)cc3)CC1)C2 [Compound 156, 4,5-dihydro-1-methyl-5-[3-[4-[(4-dimethylaminophenyl)phenyimethylene]piperidin-1-yl]propyl] [1,2,4]triazolo[4,3,a]quinoxaline] | 1120 nM | 55.9 nM
11 | Cc1nnc2n1-c1ccccc1N(CCCN1CCC(=C(c3ccco3)c3ccco3)CC1)C2 [Compound 161, 4,5-dihydro-1-methyl-5-[3-[4-[bis(2-furyl)methylene]piperidin-1-yl]propyl] [1,2,4]triazolo[4,3,a]quinoxaline] | 1190 nM | 351 nM
12 | Cc1nnc2n1-c1ccccc1N(CCCN1CCC(=C(c3cccs3)c3cccs3)CC1)C2 [Compound 165, 4,5-dihydro-1-methyl-5-[3-[4-[bis(2-thienyl)methylene]piperidin-1-yl]propyl] [1,2,4]triazolo[4,3,a]quinoxaline] | 1520 nM | 820 nM

Other lines, results leading:

Row | IC50 [1] | IC50 [2] | SMILES
13 | 120 nM | 32.5 nM | COc1cccc(C(O)(c2ccccc2)C2CCN(CCCN3Cc4nnc(C)n4-c4ccccc43)CC2)c1 (stereo not shown) [Compound 133, 4,5-dihydro-1-methyl-5-[3-[4-[hydroxy(3-methoxyphenyl)phenylmethyl]piperidin-1-yl]propyl] [1,2,4]triazolo[4,3-a]quinoxaline]
14 | 97.8 nM | 9.58 nM | Cc1cccc(C(O)(c2cccc(C)c2)C2CCN(CCCN3Cc4nnc(C)n4-c4ccccc43)CC2)c1 [Compound 134, 4,5-dihydro-1-methyl-5-[3-[4-[hydroxybis(3-tolyl)methyl]piperidin-1-yl]propyl][1,2,4]triazolo[4,3-a]quinoxaline]
15 | 1590 nM | 37.9 nM | COc1cccc(C(O)(c2cccc(OC)c2)C2CCN(CCCN3Cc4nnc(C)n4-c4ccccc43)CC2)c1 [Compound 135, 4,5-dihydro-1-methyl-5-[3-[4-[hydroxybis(3-methoxyphenyl)methyl]piperidin-1-yl]propyl] [1,2,4]triazolo[4,3-a]quinoxaline]
16 | 475 nM | 11.9 nM | COc1cccc(C(=C2CCN(CCCN3Cc4nnc(C)n4-c4ccccc43)CC2)c2ccccc2)c1 [Compound 140, 4,5-dihydro-1-methyl-5-[3-[4-[(3-methoxyphenyl)phenylmethylene]piperidin-1-yl]propyl] [1,2,4]triazolo[4,3,a]quinoxaline]
17 | 1400 nM | 110 nM | Cc1nnc2n1-c1ccccc1N(CCCN1CCC(=C(c3ccccc3)c3ccc(C(F)(F)F)cc3)CC1)C2 [Compound 151, 4,5-dihydro-1-methyl-5-[3-[4-[[4-(trifluoromethyl)phenyl]phenylmethylene]piperidin-1-yl]propyl] [1,2,4]triazolo[4,3,a]quinoxaline]
18 | 372 nM | 178 nM | Cc1nnc2n1-c1ccccc1N(CCCN1CCC(=C(c3ccccc3)c3cccc(Cl)c3)CC1)C2 [Compound 154, 4,5-dihydro-1-methyl-5-[3-[4-[(3-chlorophenyl)phenylmethylene]piperidin-1-yl]propyl] [1,2,4]triazolo[4,3,a]quinoxaline]
19 | 145 nM | 198 nM | Cc1cccc(C(=C2CCN(CCCN3Cc4nnc(C)n4-c4ccccc43)CC2)c2ccccc2)c1 [Compound 160, 4,5-dihydro-1-methyl-5-[3-[4-[phenyl(3-tolyl)methylene]piperidin-1-yl]propyl] [1,2,4]triazolo[4,3,a]quinoxaline]
20 | 609 nM | 342 nM | Cc1nnc2n1-c1ccccc1N(CCCN1CCC(=C(c3ccccc3)c3ccc4ccccc4c3)CC1)C2 [Compound 163, 4,5-dihydro-1-methyl-5-[3-[4-[(2-naphthyl)phenylmethylene]piperidin-1-yl]propyl] [1,2,4]triazolo[4,3,a]quinoxaline]
21 | 747 nM | 249 nM | Cc1nnc2n1-c1ccccc1N(CCCN1CCC(=C(c3ccccc3)c3cccs3)CC1)C2 [Compound 164, 4,5-dihydro-1-methyl-5-[3-[4-[phenyl(2-thienyl)methylene]piperidin-1-yl]propyl] [1,2,4]triazolo[4,3,a]quinoxaline]
22 | 1550 nM | 5340 nM | CCc1nnc2n(CCCN3CCC(c4c[nH]c5ccccc45)CC3)c3ccccc3n12 [Compound 193, 3-ethyl-9-[3-[4-(3-indolyl)piperidin-1-yl]propyl]-9H-[1,2,4]triazolo[4,3-a]benzimidazole fumaric acid salt]
23 | 80.8 nM | 1980 nM | CCCc1nnc2n(CCCN3CCC(c4c[nH]c5ccccc45)CC3)c3ccccc3n12 [Compound 194, 3-propyl-9-[3-[4-(3-indolyl)piperidin-1-yl]propyl]-9H-[1,2,4]triazolo[4,3-a]benzimidazole fumaric acid salt]
24 | 313 nM | 246 nM | Cc1nnc2n(CCCN3CCC(c4c[nH]c5ccc(Cl)cc45)CC3)c3ccccc3n12 [Compound 195, 3-methyl-9-[3-[4-(5-chloro-3-indolyl)piperidin-1-yl]propyl]-9H-[1,2,4]triazolo[4,3-a] benzimidazole]
25 | 30.2 nM | 557 nM | Cc1nnc2n(CCCN3CCC(c4c[nH]c5ccc(F)cc45)CC3)c3ccccc3n12 [Compound 196, 3-methyl-9-[3-[4-(5-fluoro-3-indolyl)piperidin-1-yl]propyl]-9H-[1,2,4]triazolo[4,3-a]benzimidazole]
26 | 586 nM | 75 nM | Cc1ccc2[nH]cc(C3CCN(CCCn4c5ccccc5n5c(C)nnc45)CC3)c2c1 [Compound 197, 3-methyl-9-[3-[4-(5-methyl-3-indolyl)piperidin-1-yl]propyl]-9H-[1,2,4]triazolo[4,3-a]benzimidazole]
27 | 124 nM | 353 nM | Cc1nnc2n(CCCN3CCC(C(O)(c4ccccc4)c4ccccc4)CC3)c3ccccc3n12 [Compound 198, 3-methyl-9-[3-[4-(hydroxydiphenylmethyl)piperidin-1-yl]propyl]-9H-[1,2,4]triazolo[4,3-a]benzimidazole fumaric acid salt]
28 | 38.6 nM | 50.4 nM | Cc1nnc2n(CCCN3CCC(OC(c4ccccc4)c4ccccc4)CC3)c3ccccc3n12 [Compound 200, 3-methyl-9-[3-[4-(diphenylmethoxy)piperidin-1-yl]propyl]-9H-[1,2,4]triazolo[4,3-a]benzimidazole fumaric acid salt]
29 | 277 nM | 294 nM | Cc1nnc2n(CCCN3CCC(=C(c4ccccc4)c4ccccc4)CC3)c3ccccc3n12 [Compound 201, 3-methyl-9-[3-[4-(diphenylmethylene)piperidin-1-yl]propyl]-9H-[1,2,4]triazolo[4,3-a]benzimidazole fumaric acid salt]
